According to ChEMBL document CHEMBL1158969, “Studies on the synthesis of sesquiterpene lactones, 12. Synthesis of (+)-colartin, (+)-arbusculin A, and their C-4 epimers and their biological activities” (1991):
Active and inactive are the calls of the source.

Legend:
Type in all cases: functional, organism-based
[1] = tested on: Cucumis sativus; experiment: Growth regulatory activity on Cucumis sativus root assessed as complete inhibition of germination and seedling growth at 500 ppm after 10 days
[2] = tested on: Brassica juncea; experiment: Growth regulatory activity on Brassica juncea stem assessed as complete inhibition of germination and seedling growth at 500 ppm after 10 days
[3] = tested on: Cucumis sativus; experiment: Growth regulatory activity on Cucumis sativus root assessed as complete inhibition of germination and seedling growth at 1000 ppm after 10 days
[4] = tested on: Brassica juncea; experiment: Growth regulatory activity on Brassica juncea root assessed as complete inhibition of germination and seedling growth at 1000 ppm after 10 days
[5] = tested on: Echinochloa frumentacea; experiment: Growth regulatory activity on Echinochloa frumentacea stem assessed as complete inhibition of germination and seedling growth at 1000 ppm after 10 days
[6] = tested on: Brassica juncea; experiment: Growth regulatory activity on Brassica juncea stem assessed as inhibition of germination and seedling growth at 250 ppm after 10 days
[7] = tested on: Brassica juncea; experiment: Growth regulatory activity on Brassica juncea root assessed as complete inhibition of germination and seedling growth at 500 ppm after 10 days
[8] = tested on: Brassica juncea; experiment: Growth regulatory activity on Brassica juncea root assessed as inhibition of germination and seedling growth at 250 ppm after 10 days
[9] = tested on: Cucumis sativus; experiment: Growth regulatory activity on Cucumis sativus stem assessed as inhibition of germination and seedling growth at 100 ppm after 10 days
[10] = tested on: Echinochloa frumentacea; experiment: Growth regulatory activity on Echinochloa frumentacea root assessed as inhibition of germination and seedling growth at 500 ppm after 10 days
[11] = tested on: Cucumis sativus; experiment: Growth regulatory activity on Cucumis sativus root assessed as inhibition of germination and seedling growth at 100 ppm after 10 days
[12] = tested on: Cucumis sativus; experiment: Growth regulatory activity on Cucumis sativus stem assessed as inhibition of germination and seedling growth at 1000 ppm after 10 days
[13] = tested on: Cucumis sativus; experiment: Growth regulatory activity on Cucumis sativus stem assessed as complete inhibition of germination and seedling growth at 500 ppm after 10 days
[14] = tested on: Echinochloa frumentacea; experiment: Growth regulatory activity on Echinochloa frumentacea root assessed as complete inhibition of germination and seedling growth at 1000 ppm after 10 days
[15] = tested on: Cucumis sativus; experiment: Growth regulatory activity on Cucumis sativus root assessed as inhibition of germination and seedling growth at 250 ppm after 10 days
[16] = tested on: Brassica juncea; experiment: Growth regulatory activity on Brassica juncea stem assessed as complete inhibition of germination and seedling growth at 1000 ppm after 10 days
[17] = tested on: Echinochloa frumentacea; experiment: Growth regulatory activity on Echinochloa frumentacea stem assessed as inhibition of germination and seedling growth at 500 ppm after 10 days
[18] = tested on: Cucumis sativus; experiment: Growth regulatory activity on Cucumis sativus root assessed as inhibition of germination and seedling growth at 1000 ppm after 10 days
[19] = tested on: Cucumis sativus; experiment: Growth regulatory activity on Cucumis sativus root assessed as inhibition of germination and seedling growth at 500 ppm after 10 days
[20] = tested on: Brassica juncea; experiment: Growth regulatory activity on Brassica juncea root assessed as inhibition of germination and seedling growth at 500 ppm after 10 days
[21] = tested on: Cucumis sativus; experiment: Growth regulatory activity on Cucumis sativus stem assessed as complete inhibition of germination and seedling growth at 1000 ppm after 10 days
[22] = tested on: Echinochloa frumentacea; experiment: Growth regulatory activity on Echinochloa frumentacea stem assessed as inhibition of germination and seedling growth at 1000 ppm after 10 days
[23] = tested on: Cucumis sativus; experiment: Growth regulatory activity on Cucumis sativus stem assessed as inhibition of germination and seedling growth at 250 ppm after 10 days
[24] = tested on: Brassica juncea; experiment: Growth regulatory activity on Brassica juncea stem assessed as inhibition of germination and seedling growth at 1000 ppm after 10 days
[25] = tested on: Cucumis sativus; experiment: Growth regulatory activity on Cucumis sativus stem assessed as inhibition of germination and seedling growth at 500 ppm after 10 days
[26] = tested on: Brassica juncea; experiment: Growth regulatory activity on Brassica juncea root assessed as inhibition of germination and seedling growth at 1000 ppm after 10 days
[27] = tested on: Echinochloa frumentacea; experiment: Growth regulatory activity on Echinochloa frumentacea root assessed as inhibition of germination and seedling growth at 1000 ppm after 10 days

Measured: growth inhibition (GI)

C=C1C(=O)O[C@@H]2[C@@H]3[C@](C)(CCC[C@@]3(C)O)CC[C@@H]12
active: [1] | [2] | [3] | [4] | [5] | [6] | [7] | [8] | [9] | [10] | [11] | [12] | [13] | [14] | [15] | [16] | [17]

CC1=CCC[C@]2(C)CC[C@@H]3[C@H](OC(=O)[C@H]3C)[C@@H]12
active: [18] | [19]

C[C@@H]1C(=O)O[C@H]2[C@H]1CC[C@@]1(C)CC=C[C@@](C)(O)[C@H]21
active: [1] | [20] | [3] | [4] | [21] | [22] | [23] | [10] | [24] | [14] | [15]

C[C@@H]1C(=O)O[C@H]2[C@H]1CC[C@@]1(C)CCC[C@@](C)(O)[C@H]21
active: [1] | [20] | [3] | [5] | [23] | [10] | [12] | [25] | [14] | [15] | [16] | [17]

C[C@@H]1C(=O)O[C@H]2[C@H]1CC[C@@]1(C)CC[C@@H](O)[C@@](C)(O)[C@H]21
active: [3] | [21] | [22] | [19] | [26] | [27] | [25] | [17]
